Where two headings read alike, the source gives them in different places.
Legend:
LD50 po. on rat = conditions: in vivo
[1] = acute toxicity test in mice (Litchfield and Wilcoxon); format: in vivo, mouse; conditions: mouse, in vivo, po., 14 days observation
Procedure: (§1) The test for acute toxicity was carried out by using 10 white mice (CFLP strain) (both male and female), weighing 18 to 22 g in each dose group. The compounds of the invention were administered orally in a dose of 20 ml/kg.
(§2) The animals were kept in a plastic box on wood chips in a room of room temperature. They could consume tap water and standard mouse feed ad libitum. The toxicity data were determined by the method of Litchfield and Wilcoxon (Litchfield, J. T., Wilcoxon, F. W.: J. Pharmacol. Exp. Ther. 96, 99/1949/).

gastric acid secretion = gastric acid secretion test (Shay); format: in vivo, rat; conditions: rats
Procedure: The test was carried out according to Shay's operational method. […] On the day of the test the pylorus of the animals was bound under ether narcosis. The test compounds were administered orally 3 hours before the operation. The animals of the control group were administered with the carrier only. 4 hours after the operation the stomach was removed, the content thereof was centrifuged and the amount of free acid was determined by titration with 0.1N sodium hydroxide.

nervus ischiadicus = assay: local analgesic effect (Truant d'Amato's method); format: in vivo; conditions: for EC50 %: 0.2 ml injected around nervus ischiadicus; for Duration of effect: in a conc. of 0.5%
Procedure: The tests were carried out according to Truant d'Amato's method. 0.2 ml of test material was injected around the nervus ischiadicus in the middle of femur with a needle of 1 cm length. The criterion of analgesic effect was the lack of the motoric control of foot muscles.
The duration of effect was registered and the 50 percentile effective concentration (EC50) was calculated on the basis of the dose-effect curve. Lidocain was used as comparative material. (Truant, A. P., D'Amato, D.: Acta Chir Scand. 116, 351/1958/)

[2] = tested on: aconitine-induced ECG alterations; assay: animal or person; format: in vivo, rat; conditions: for ED50 / change in vivo at 4 mg/kg / change in vivo at 100 mg/kg: Rattus norvegicus; for change in vivo at 4 mg/kg / change in vivo at 100 mg/kg: read-out: Effect % (antiarrhythmic)
Procedure: The test was carried out by using the modified method of Marmo et al. on rats weighing 160 to 200 g. The animals were narcotised by ethyl uretane (1.2 g/kg ip.). Aconitin was administered intravenously in a dose of 75 /ug/kg in the form of a bolus injection. The ECG alterations were monitored in standard II lead by 5 minutes after the administration of aconitine. The observed alterations were classified into classes 0 to 5. The compounds of the invention were administered 2 minutes or 60 minutes before the parenteral or oral administration of aconitine, respectively. […]
class 1: sometimes an extrasystole occurs class 2: each second one is an extrasystole class 3: extrasystoles in groups class 4: each one is an extrasystole class 5: fibrillation, death
(Marmo, E., DiGiacomo, S., Imperatore, A.: Arzeimittel-Forschung 20, 12/1970/)

[3] = absorption judged by ED50 per os/ED50 iv; conditions: in vivo
Source text: The compounds of formula I according to the invention can well be absorbed if administered either orally or parenterally.

[4] = tested on: peristalty of stomach and intestines; assay: effect exerted on the peristalty of stomach and intestines (Stickney et al., carbon suspension); format: in vivo, mouse; conditions: po., mice; for ED50: Mus musculus, read-out: ED50 (antiperistaltic); for TI (therapeutic index): antiperistaltic
Procedure: The antiperistaltic effect of the compounds was examined by the method of Stickney et al. on white mice of both sexes, weighing 20 to 25 g. The compounds to be tested were administered per os 60 minutes before the addition of carbon suspension to groups containing 10 mice each. The animals of the control groups were treated at the same time and in the same manner with the carrier only. The mice were killed 10 minutes after the addition of the carbon suspension, and the whole length of the intestines as well as the length of the intestines filled with carbon suspension were measured.

[5] = tested on: coronary insufficiency caused by vasopressine; assay: antianginal effect on rats (vasopressine coronary insufficiency, Nieschulz); format: in vivo, rat; conditions: for ED50: Rattus norvegicus, read-out: ED50 (antianginal)
Procedure: The test was carried out by using rats weighing 180 to 220 g. The animals were narcotised by chloralose urethane (70 to 700 mg/kg ip.). The ECG alterations were registered in standard II lead with the aid of needle electrodes. The antianginal effect was measured with Nieschultz's method. The coronary insufficiency was caused by vasopressine (1 NE/kg, iv.). The size of the T-wave was measured before and after administration of vasopressine in both the control and test groups. The compounds of the invention were administered 2 minutes before the administration of vasopressine. (Nieschulz, O., Popendiker, K., Hoffmann, I.: Arzneimittel-Forschung 5, 680/1955/)

hexobarbital narcosis = assay: narcosis potentiating effect (hexobarbital sleeping time); conditions: for ED50: Mus musculus, po, read-out: ED50 (narcosis potentiation); for TI (therapeutic index): narcosis potentiation
Procedure: The narcosis potentiating effect of the compounds of the invention were examined on white mice, with 6 animals in each group. The mice were administered orally with the compounds of the invention, then both the control and the test groups were intravenously added 40 mg/kg of hexobarbital in order to make the mice sleep (Kaergard et al.).

white mice (CFLP strain) = assay: acute toxicity test in mice (Litchfield and Wilcoxon); format: in vivo, mouse; conditions: po., 14 days observation
Procedure: as §1, §2

beta-adrenergic = conditions: background art; cited from earlier work
blood pressure = conditions: background art; cited from earlier work
level of lipids = conditions: background art; cited from earlier work
[6] = Rattus norvegicus, dose 200 mg/kg po., read-out: Inhibition of free acid, %
[7] = iv, read-out: ED50 iv. (antiarrhythmic)
[8] = po, read-out: ED50 (antiarrhythmic, per os)
[9] = iv., rats, vasopressine 1 NE/kg iv

CC(C)N(CC(O)CO/N=C1\CCCC\C1=C/c1ccccc1)C(C)C (racemic) [Example 1, R,S-2-(E)-Phenylmethylene-1-(E)-{3-[bis-(1-methylethyl)-amino]-2-hydroxy-propoxyimino}-cyclohexane]
LD50 (LD50 po. on rat): 1760 mg/kg | LD50 at 336 h [1]: 400 mg/kg | inhibition in vivo at 200 mg/kg (gastric acid secretion; [6]): 70% | EC50 % (nervus ischiadicus): 0.04% | ED50 ([2]; iv, read-out: ED50 iv): 1.21 mg/kg | ED50 [2, 7]: 1.21 mg/kg | change in vivo at 4 mg/kg ([2]; iv): -89.5% | ED50 [2, 8]: 27.3 mg/kg | ED50 ([2]; po, read-out: ED50 per os): 24.4 mg/kg | change in vivo at 100 mg/kg ([2]; po): -100% | effect compared to the control compounds regarding the absolute dose ([2]; administered orally): multiplied effect compared to the control compounds | TI (therapeutic index) ([2]; antiarrhythmic, per os, rat): 64.6 | therapeutical activity range, times higher than that of Quinidine ([2]; per os, rats, vs Quinidine): 5.8 times | absorption ratio (ED50 po / ED50 iv) [3]: 20.6 | absorption ([3]; po): much better than that of the cited compound of formula (e) | ED50 [4]: ~80 mg/kg | TI (therapeutic index) [4]: about 5

OC(CO/N=C1\CCCC\C1=C/c1ccccc1)CN1CCCCCC1 (racemic) [Example 10, R,S-2-(E)-Phenylmethylene-1-(E)-(3-hexamethylene-imino-2-hydroxypropoxyimino)-cyclohexane]
LD50 at 336 h [1]: 900 mg/kg | change in vivo at 4 mg/kg ([2]; iv): -47% | ED50 [5, 9]: 1.62 mg/kg

CN(C)CCCNCC(O)CO/N=C1\CCCC\C1=C/c1ccccc1 (racemic) [Example 11, R,S-2-(E)-Phenylmethylene-1-(E)-[3-(3-dimethylamino-1-propylamino)-2-hydroxy-propoxyimino]-cyclohexane]
LD50 at 336 h [1]: > 1000 mg/kg | inhibition in vivo at 200 mg/kg (gastric acid secretion; [6]): 62% | ED50 [5, 9]: 0.93 mg/kg | ED50 [4]: 100 mg/kg | TI (therapeutic index) [4]: 10

CN1CCN(CC(O)CO/N=C2\CCCC\C2=C/c2c(Cl)cccc2Cl)CC1 (racemic) [Example 36, R,S-2-(E)-(2,6-Dichlorophenyl-methylene)-1-(E)-[3-(4-methyl-1-piperazinyl)-2-hydroxy-propoxyimino]-cyclohexane]
LD50 at 336 h [1]: 700 mg/kg | ED50 (hexobarbital narcosis): 14 mg/kg | TI (therapeutic index) (hexobarbital narcosis; mice, po.): 50 | ED50 [5, 9]: 1.28 mg/kg | ED50 [4]: ~100 mg/kg | TI (therapeutic index) [4]: about 7

CCCNCC(O)CO/N=C1\CCCCC\C1=C/c1ccc(OC)cc1 (racemic) [Example 43, R,S-2-(E)-(4'-Methoxyphenyl-methylene)-1-(E)-(3-propylamino-2-hydroxy-propoxyimino)-cycloheptane]
LD50 at 336 h [1]: 800 mg/kg | inhibition in vivo at 160 mg/kg (gastric acid secretion; Rattus norvegicus, dose 160 mg/kg po., read-out: Inhibition of free acid, %): 32% | ED50 (hexobarbital narcosis): 50 mg/kg | TI (therapeutic index) (hexobarbital narcosis; mice, po.): 16 | ED50 [5, 9]: ~2 mg/kg

CCN(CC)CC(O)CO/N=C1\CCCCC\C1=C/c1ccc(OC)cc1 (racemic) [Example 44, R,S-2-(E)-(4-Methoxyphenyl-methylene)-1-(E)-(3-diethylamino-2-hydroxy-propoxyimino)-cycloheptane]
LD50 at 336 h [1]: 600 mg/kg | ED50 [5, 9]: 1.93 mg/kg

CC(C)NCC(O)CO/N=C1\CCCCC1Cc1ccc(Cl)cc1 (racemic) [Example 47, R,S-2-(E)-(4-Chlorophenyl-methyl)-1-(E)-[3-(1-methylethyl-amino)-2-hydroxy-propoxyimino]-cyclohexane]
LD50 at 336 h [1]: 700 mg/kg | EC50 % (nervus ischiadicus): 0.18% | Duration of effect (nervus ischiadicus): 93 min | ED50 [5, 9]: 1.29 mg/kg

CCCN(CCC)CC(O)CO/N=C1\CCCCC\C1=C/c1ccc(OC)cc1 (racemic) [Example 51, R,S-2-(E)-(4-Methoxyphenyl-methylene)-1-(E)-(3-dipropylamino-2-hydroxy-propoxyimino)-cycloheptane]
LD50 at 336 h [1]: 100 to 500 mg/kg | EC50 % (nervus ischiadicus): 0.28% | Duration of effect (nervus ischiadicus): 103 min | ED50 [5, 9]: 0.43 mg/kg

OC(CO/N=C1\CCCC\C1=C/c1ccccc1)CN1CC=C(c2ccccc2)CC1 (racemic) [Example 55, R,S-2-(E)-Phenylmethylene-1-(E)-[3-(4-phenyl-1,2,3,6-tetrahydro)-1-pyridinyl]-2-hydroxy-propoxyimino-cyclohexane]
LD50 at 336 h [1]: > 1000 mg/kg | ED50 ([5]; iv): 1.77 mg/kg

CC(C)CNCC(O)CON=C1CCCCC1=Cc1cccc(Cl)c1 (stereo not shown) [Example 25, R,S-2-(E)-3-Chlorophenylmethylene-1-(E)-[3-(2-methylpropyl-amino)-2-hydroxy-propoxyimino]-cyclohexane]
LD50 (white mice (CFLP strain)): 900 mg/kg

CC(C)NCC(O)CO/N=C1\CCCC\C1=C/c1ccc(Cl)cc1 (stereo not shown) [Example 26, R,S-2-(E)-(4-Chlorophenyl-methylene)-1-(E)-[3-(1-methylethylamino)-2'-hydroxy-propoxyimino]-cyclohexane]
LD50 (white mice (CFLP strain)): more than 1000 mg/kg | Inhibition of free acid, % (gastric acid secretion; dose 100 mg/kg po.): 66% | Inhibition of free acid, % (gastric acid secretion; dose 200 mg/kg po.): 92% | EC50 % (nervus ischiadicus): 0.22% | Duration of effect (nervus ischiadicus): 49 min | TI (therapeutic index) (hexobarbital narcosis; mice, po.): > 7 | ED50 (narcosis potentiation) (hexobarbital narcosis; po., mice, hexobarbital 40 mg/kg iv): 140 mg/kg | ED50 (antianginal) [5, 9]: about 2.0 mg/kg

CCCNCC(O)CO/N=C1\CCCC\C1=C/c1ccc(Cl)cc1 (stereo not shown) [Example 46, R,S-2-(E)-(4-Chlorophenyl-methylene)-1-(E)-(3-propylamino-2-hydroxypropoxyimino)-cyclohexane]
LD50 (white mice (CFLP strain)): more than 1000 mg/kg | EC50 % (nervus ischiadicus): 0.19% | Duration of effect (nervus ischiadicus): 81 min

CC(=NOCC(O)CNC(C)(C)C)C1CC1 (stereo not shown) [Falintolol]
beta-adrenergic blocking effect (beta-adrenergic): exhibits beta-adrenergic blocking activity

CC(C)(C)NCC(O)CON=C1c2ccccc2-c2ccccc21 (stereo not shown) [IPS-339]
beta-adrenergic blocking effect (beta-adrenergic): exhibits beta-adrenergic blocking effect

COc1cccc(C=NOCC(O)CN2CCN(c3ccccc3OC)CC2)c1 (stereo not shown) [Paradoxime]
blood pressure reducing activity (blood pressure): shows blood pressure reducing activity

OC(CON=Cc1ccc(Cl)cc1)CN1CCN(c2ccccc2Cl)CC1 (stereo not shown) [Peraclopone]
reduction of the level of lipids (level of lipids): reduces the level of lipids

CC(Cc1ccccc1)NCCC(c1ccccc1)c1ccccc1 (stereo not shown) [Prenilamine, reference compound]
ED50 ([5]; iv): 6.5 mg/kg

C=C[C@H]1C[N@@]2CC[C@H]1C[C@@H]2[C@@H](O)c1ccnc2ccc(OC)cc12 [Quinidine, reference compound]
LD50 (LD50 po. on rat): 1130 mg/kg | ED50 [2, 7]: 9.85 mg/kg | change in vivo at 4 mg/kg ([2]; iv): -29% | ED50 [2, 8]: ~100 mg/kg | change in vivo at 100 mg/kg ([2]; po): -52%

R,S-2-(E)-Chlorophenylmethylene-1-(E)-[3-(4-phenyl-1-piperazinyl)-2-hydroxy-propoxyimino]-cyclohexane [Example 24]
LD50 (white mice (CFLP strain)): more than 1000 mg/kg | TI (therapeutic index) [4]: about 7 | ED50 (antiperistaltic) [4]: about 150 mg/kg

Reference: patent US5234934A, “Aminopropanol derivatives, process for their preparation and pharmaceutical compositions comprising the same” (priority 1989, dated 1993)
